Assay results published in patent US9937163B2, “Remedy for psychoneurotic diseases” (National University Corporation Chiba University, priority 2004, dated 2018).
Marks after values point to notes of the source that are not given here.

System: P50 auditory evoked potential in schizophrenic patients
Experiment: P50 auditory evoked potential in schizophrenic patients before and 1 h after administration of tropisetron
Assay type: in vivo, human
Protocol: Twenty-two patients with schizophrenia (14 males and 8 females, average age: 39.8 years old (standard deviation 14.0), age range: 18-60 years old) were selected as subjects. The subjects were diagnosed by psychiatrists on the basis of DSM-IV criteria. Psychiatric symptoms and cognitive functions of the subjects were evaluated using Brief Psychiatric Rating Scale (BPRS), Global Assessment of Functioning (GAF), Mini-Mental State Examination (MMSE) and Wechsler Adult Intelligence Scale-Revised (WAIS-R).
First, a baseline P50 auditory evoked potential of a subject was measured (conditioning P50), then the P50 was measured 1 h after administration of 10 mg of tropisetron (test P50). P50 is a positive brain wave which appears approximately 50 m seconds after an auditory stimulus. Consecutive click sounds with an interval of 500 m seconds (conditioning stimulus and test stimulus) at 70 dB were presented every 10 seconds for 120 times, and the brain wave measured at the parietal region was summed to identify P50. The resistance of an electrode was set at 10 kW or less, and the brain wave exceeding ±70 mV was omitted as artifact. The largest positive wave between 40 ms and 90 ms after the conditioning stimulus was designated to be the conditioning P50, and the positive wave after the test stimulus whose latency is the closest to that of the conditioning P50 was designated to be the test P50. The amplitude of P50 was defined as the difference between the positive peak and the preceding negative trough. The P50 ratio was defined as the amplitude of the test P50 divided by the amplitude of the conditioning P50.
Data were expressed as average±standard deviation. The statistical analysis between two groups was performed using Student's t-test. The relationship between variables was confirmed by Pearson's product-moment correlation coefficient. p Values of 0.05 or less were designated to be statistically significant.

[1] = 1 h after administration of 10 mg tropisetron, 19 subjects with baseline P50 ratio larger than 0.5

Structure (SMILES): CN1[C@@H]2CC[C@H]1C[C@@H](OC(=O)c1c[nH]c3ccccc13)C2 [tropisetron, (1R,3r,5S)-8-methyl-8-azabicyclo[3.2.1]oct-3-yl 1H-indole-3-carboxylate]
- Change in amplitude of conditioning P50 between before and after administration (10 mg tropisetron, 1 h, 19 subjects, t=0.79, df=18, p=0.44): no significant differences
- Change in latency of conditioning P50 between before and after administration (10 mg tropisetron, 1 h, 19 subjects, t=1.05, df=18, p=0.31): no significant differences
- Change in P50 ratio between before and after administration (10 mg tropisetron, 1 h, 19 subjects, t=2.32, df=18, p=0.033): significant decrease
- Latency, conditioning P50, After, Mean [1]: 59.79 ms
- Latency, test P50, After, Mean [1]: 59.16 ms
- P50(T/C)ratio, After, Mean (1 h after administration of 10 mg tropisetron, 19 subjects with baseline P50 ratio larger than 0.5, amplitude of test P50 divided by amplitude of conditioning P50): 0.61*
- Effect on cognitive dysfunction in schizophrenia (conclusion drawn from the decrease in P50 ratios in patients with schizophrenia): improves cognitive dysfunction in schizophrenia
- Number of subjects in whom the P50 ratio improved to 0.5 or less (of 19 subjects with baseline P50 ratio larger than 0.5, after 10 mg tropisetron): four
